The values that follow are results of earlier work, collected in patent US20040115263A1, “Use of bupropion for treating restless legs syndrome” (priority 2002, published 2004).

SMILES strings stand for the structures.

The conditions of data set [1]: RLS patients.

On to `CC(C)C[C@H]1C(=O)N2CCC[C@H]2[C@]2(O)O[C@](NC(=O)[C@@H]3C=C4c5cccc6[nH]c(Br)c(c56)C[C@H]4N(C)C3)(C(C)C)C(=O)N12` [Bromocriptine], for which the side effects reported entry in data set [1] was “transient nasal stuffiness and lightheadedness in one patient”. Turning to `N[C@@H](Cc1ccc(O)c(O)c1)C(=O)O` [L-dopa], under “L-dopa given with a peripheral carboxylase inhibitor at a 10:1 ratio, patients”, the “efficacy in treating RLS” value was “effective”. For the same molecule, for the setting “human, in vivo”, the “cases in which augmentation is a complicating feature” value was 65-80%.
